According to PubChem BioAssay (NCI):
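Cultured in 96-well plates, cells were exposed to test compound for 48 hours across five concentrations. Here, GI50 denotes the concentration required for 50% inhibition of growth. At the TGI there is no net growth.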

Legend:
Assay in all cases: growth of human tumour cells (NCI), 48 h
786-0 renal = tested on: 786-0 renal
CCRF-CEM leukemia = tested on: CCRF-CEM leukemia
HCT-116 colon = tested on: HCT-116 colon
NCI-H226 lung = tested on: NCI-H226 lung
NCI-H460 lung = tested on: NCI-H460 lung
RPMI-8226 leukemia = tested on: RPMI-8226 leukemia
SK-MEL-5 melanoma = tested on: SK-MEL-5 melanoma
T-47D breast = tested on: T-47D breast

SMILES	GI50 (786-0 renal) [µM]	TGI (786-0 renal) [µM]	GI50 (CCRF-CEM leukemia) [µM]	TGI (CCRF-CEM leukemia) [µM]	GI50 (HCT-116 colon) [µM]	TGI (HCT-116 colon) [µM]	GI50 (NCI-H226 lung) [µM]	TGI (NCI-H226 lung) [µM]	GI50 (NCI-H460 lung) [µM]	TGI (NCI-H460 lung) [µM]	GI50 (RPMI-8226 leukemia) [µM]	TGI (RPMI-8226 leukemia) [µM]	GI50 (SK-MEL-5 melanoma) [µM]	TGI (SK-MEL-5 melanoma) [µM]	GI50 (T-47D breast) [µM]	TGI (T-47D breast) [µM]
O=C1c2ccccc2-c2c1c1c(O)cccc1n2Cc1ccccn1	> 100	> 100	29.5	> 100	63.5	> 100	12.8	65.3	52.1	> 100	19.9	> 100	8.77	> 100	> 100	> 100
O=C(N/N=C/c1ccc(O)cc1O)c1cccc(Nc2ccnc(C(F)(F)F)c2)c1	1.14	10.6	0.257	2.14	0.535	20.5	1.21	9.44	3.06	11.3	3.55	14.9	0.626	11.1	0.66	15.6
CC(=[N-])N1CCC[C@@H](Nc2c3ccccc3nc3ccccc23)C1.[Cl][Pt].[NH-]CCC[NH-]	3.89	> 24.8	1.58	> 100	1.28	> 100	0.0328	0.2	0.0277	> 40.8	2.42	> 100	0.127	0.291	0.0368	> 100
Cc1ccc(C(=O)/C(=C\c2ccc([N+](=O)[O-])cc2)S(=O)Cc2ccc(Cl)cc2)cc1 (configuration not stated)	1.57	2.97	0.635	> 100	1.43	2.92	2.81	11.5	1.84	3.9	1.29	4.62	1.69	3.23	1.51	3.37
C=C1C(=O)O[C@H]2[C@H]1CC/C(COC(=O)C(C)c1ccc(CC(C)C)cc1)=C\CC[C@@]1(C)O[C@@H]21 (some centres not stated)	0.395	1.65	0.228	1.03	0.187	0.376	1.64	3.52	1.56	3.16	0.278	1.19	1.6	2.96	1.72	4.43
C/C(O)=C(\C#N)C(=O)Nc1ccc(C(F)(F)F)cc1	34.3	> 100	18.5	> 100	7.5	> 100	98	> 100	8.92	> 100	24.8	> 100	15.9	> 100	92	> 100
Oc1ccc(C2c3ccccc3Oc3ccccc32)c2cccnc12	1.64	4.85	0.738	> 100	0.852	> 100	1.23	7.92	0.47	5.1	1.7	> 100	1.62	8.66	2.95	> 100
CCC(=O)Nc1ccc(C)c(-c2ccc(C(=O)NCC3CC3)cc2)c1	> 25	> 25	> 25	> 25	> 25	> 25	> 25	> 25	> 25	> 25	> 25	> 25	> 25	> 25	14.6	> 25
NS(=O)(=O)NCCNc1nonc1C(=Nc1ccc(F)c(Br)c1)NO	48.8	> 100	49.8	> 100	42.6	> 100	47.7	> 100	35.9	> 100	37.9	> 100	31.9	> 100	35.1	> 100
Cc1cc2c(C(N)=O)c(N)n(-c3c(C)ccc(O)c3C)c2nc1C	3.37	> 100	2.65	> 100	2.52	15.2	0.569	4.89	4.77	31.2	3.48	> 100	4.89	26.3	6.68	> 100
O=C1/C(=C/c2ccc(Cl)cc2)CCC/C1=C\c1ccc(Cl)cc1	5.55	> 100	3.64	> 100	1.65	3.02	5.18	> 100	6.93	> 100	2.1	6.32	4.26	> 100	8.76	> 100
CCc1ccc(C(=Nc2ccc(N(C)C(=O)CN3CCN(C)CC3)cc2)c2c(O)[nH]c3ccc(C(=O)OC)cc23)cc1	0.404	1.86	0.256	1.16	0.0995	1.12	0.977	2.71	0.748	2.21	0.424	1.67	1.2	2.47	0.87	2.68
